In US8394742B2, “Methods, compounds and compositions with genotype selective anticancer activity” (The Translation Genomics Research Institute, priority 2005, dated 2013):

Experiments:
Assay type in all cases: cell-based, human
BxPC-3 cells [1] = experiment: Annexin V-FITC apoptosis assay; conditions: BxPC-3, 25 μM, 24 hours; untreated control 4.6%
Description: Cells were grown and treated with UA62001 as described in the cell cycle distribution analysis section above. Twenty-four hours after the treatment with the compound, cell media containing detached floating cells were transferred to 15 ml conical tubes; while the attached cells were trypsinized and collected in the same tube. Cells were then pelleted by centrifugation at 1500 rpm for 5 min, washed with PBS and then resuspended in 1×binding buffer at a concentration of 1×10^6 cells/ml. One hundred microliters (1×10^5 cells) were incubated with 5 μl of Annexin V-FITC (BD Pharmingen) and propidium iodide for 15 min in the dark at room temperature. After adding 400 μl of the 1× binding buffer, the cells were analyzed by flow cytometry (BD Immunocytometry systems). Data were acquired and analyzed using CellQuest software.

[2] = test system: DPC4 isogenic cell lines (BxPC-3-vector and BxPC-3-DPC4); experiment: Pharmacological synthetic lethal screening in DPC4 isogenic cell lines; conditions: reexpression isogenic cell lines
Source text: To find molecules that selectively kill cells with specific deficiencies, Applicants use cell proliferation assays to screen molecules libraries in a high throughput manner. These molecule libraries can be small organic compounds, siRNA libraries, antisense libraries and antibody/protein libraries. To carry out the screening in an efficient and cost-effective way, Applicants have designed a procedure for the screening of small organic compound libraries which consists of three steps, namely Toxicity Screen, Synthetic Lethal Screen and Selectivity Screen (FIG. 12). […]
In the Selectivity Screening, compounds are tested against cancer cell lines with a specific loss-of-function mutation and normal cells (HPDE6 and FORF-TERT). Depending on their approximate potency assessed in the Synthetic lethal Screening, compounds are tested in a range of concentrations (8 concentrations per agent) in Selectivity Screening. […]
After generating the isogenic cell lines for the DPC4 gene, Applicants then carried out a screening process using the cell lines with the aim to identify compounds that selectively kill cells with deficient DPC4 function. […] In each round, the anti-proliferative activity of compounds was evaluated in different cell lines using the CellTiter 96 Non-Radioactive Cell Proliferation Assay (Promega). […]

BxPC-3 cells [3] = experiment: Cell cycle distribution analysis (propidium iodide, flow cytometry); conditions: BxPC-3, 25 μM
Description: Cells (5×10^5) were plated in a T-25 tissue culture flask 24 hours prior to the drug treatment. […] After the treatment, the cells were harvested by trypsinization and centrifugation and then stained with propidium iodide (Sigma) in a modified Krishan buffer (20) for 4 hours at 4° C. The PI stained samples were then analyzed with a FACScan flow cytometer (BD Immunocytometry systems, San Jose, Calif.). Histograms were analyzed for cell cycle compartments and the percentage of cells at each phase of the cell cycle was calculated using CellQuest (BD Immunocytometry systems) analysis software.

O=C1c2ccccc2C(=O)c2c1ccc1c(=O)n(-c3ccccc3)[nH]c21 [UA62001, 2-phenyl-1H-Naphth [2,3-g]indazole-3,6,11(2H)-trione] was tested, and the “percentage of cells in the M1 region (Annexin V staining)” value (BxPC-3 cells [1]) was 8.2%, the “selectivity against DPC4 deficiency” value [2] was “DPC4 genotype selectivity” and the “cell population in S phase” value (BxPC-3 cells [3]; 24 hours, control 33.6%) was 55.6%. For the same molecule, the “cell population in S phase” value (BxPC-3 cells [3]; 48 hours, control 28.6%) was 59.5%, the “cell population in S phase” value (BxPC-3 cells [3]; 72 hours, control 17.0%) was 57.4% and the G2/M phase population (BxPC-3 cells [3]; untreated control ~10%) was ~20%.
